Legend:
[1] = biological target: T1, Pyruvate carboxylase (RePC) (Rhizobium etli, UniProt Q2K340); assay: X-ray co-crystal structure; assay type: binding
[2] = biological target: T1, Pyruvate carboxylase (RePC); assay: ITC; assay type: binding

O=C(O)C(=O)O [oxalate]
Kd [1]: 0.13 mM

CC(=O)C(=O)O [pyruvate]
Kd [2]: ~2 mM

From PMC3894693 (Biochemical and biophysical research communications, 2013)
